4 compounds from PubChem BioAssay AID1259407 (Chemical Carcinogenesis Research Information System (CCRIS), 2018) can be followed below.

The source made the active and inactive calls. No rule for the calls is given here.

The subject of the data set is CCRIS mutagenicity, Ames/micronucleus/aberration tests. The experiment in a line: CCRIS mutagenicity studies.
The mark [1] stands for this setting: Test System: AMES SALMONELLA TYPHIMURIUM, Strain/Indicator: TA98, Metabolic Activation: NONE, Method: STANDARD PLATE.
The mark [2] stands for this setting: Test System: AMES SALMONELLA TYPHIMURIUM, Strain/Indicator: TA100, Metabolic Activation: NONE, Method: STANDARD PLATE.
Setting [3] is: Test System: AMES SALMONELLA TYPHIMURIUM, Strain/Indicator: TA100, Metabolic Activation: NONE, Method: PREINCUBATION
Where [4] appears, read: Test System: AMES SALMONELLA TYPHIMURIUM, Strain/Indicator: TA1535, Metabolic Activation: NONE, Method: PREINCUBATION

On to `CC(=O)Nc1snc2ccccc12`, for which the mutagenic call runs as follows: under setting [1], “inactive; negative”; (Test System: AMES SALMONELLA TYPHIMURIUM, Strain/Indicator: TA98, Metabolic Activation: S-9, Method: STANDARD PLATE) “inactive; negative”; under setting [2], “inactive; negative”; (Test System: AMES SALMONELLA TYPHIMURIUM, Strain/Indicator: TA100, Metabolic Activation: S-9, Method: STANDARD PLATE) “active; positive”; (Test System: AMES SALMONELLA TYPHIMURIUM, Strain/Indicator: TA1535, Metabolic Activation: NONE, Method: STANDARD PLATE) “inactive; negative”; (Test System: AMES SALMONELLA TYPHIMURIUM, Strain/Indicator: TA1535, Metabolic Activation: S-9, Method: STANDARD PLATE) “inactive; negative”. For the same compound, the mutagenic call is “active; positive” (Test System: AMES SALMONELLA TYPHIMURIUM, Strain/Indicator: TA1537, Metabolic Activation: NONE, Method: STANDARD PLATE) and “active; positive” (Test System: AMES SALMONELLA TYPHIMURIUM, Strain/Indicator: TA1537, Metabolic Activation: S-9, Method: STANDARD PLATE).
As to `Nc1ccc2c(c1)Cc1cc([N+](=O)[O-])ccc1-2`, the mutagenic call is “active; positive” (Test System: AMES SALMONELLA TYPHIMURIUM, Strain/Indicator: TA98, Metabolic Activation: HAMSTER, LIVER, S-9, 3-METHYLCHOLANTHRENE, Method: STANDARD PLATE) and “active; positive” (Test System: AMES SALMONELLA TYPHIMURIUM, Strain/Indicator: TA98, Metabolic Activation: HAMSTER, LIVER, S-9, Method: STANDARD PLATE).
Consider `CC=C(Cl)Cl`, for which the mutagenic call runs as follows: (Test System: AMES SALMONELLA TYPHIMURIUM, Strain/Indicator: RSJ100, Metabolic Activation: NONE, Method: PREINCUBATION) “active; positive”; (Test System: AMES SALMONELLA TYPHIMURIUM, Strain/Indicator: RSJ100, Metabolic Activation: NONE, Method: VAPOR PHASE) “active; positive”; (Test System: AMES SALMONELLA TYPHIMURIUM, Strain/Indicator: TA98, Metabolic Activation: NONE, Method: PREINCUBATION) “inactive; negative”; (Test System: AMES SALMONELLA TYPHIMURIUM, Strain/Indicator: TA98, Metabolic Activation: RAT, LIVER, S-9, AROCLOR, Method: PREINCUBATION) “inactive; negative”; under setting [3], “inactive; negative”; (Test System: AMES SALMONELLA TYPHIMURIUM, Strain/Indicator: TA100, Metabolic Activation: RAT, LIVER, S-9, AROCLOR, Method: PREINCUBATION) “inactive; negative”. The mutagenic call runs as follows: (Test System: AMES SALMONELLA TYPHIMURIUM, Strain/Indicator: TA104, Metabolic Activation: NONE, Method: PREINCUBATION) “inactive; negative”; (Test System: AMES SALMONELLA TYPHIMURIUM, Strain/Indicator: TA104, Metabolic Activation: RAT, LIVER, S-9, AROCLOR, Method: PREINCUBATION) “inactive; negative”; under setting [4], “inactive; negative”; (Test System: AMES SALMONELLA TYPHIMURIUM, Strain/Indicator: TA1535, Metabolic Activation: RAT, LIVER, S-9, AROCLOR, Method: PREINCUBATION) “inactive; negative”; (Test System: AMES SALMONELLA TYPHIMURIUM, Strain/Indicator: TPT100, Metabolic Activation: NONE, Method: PREINCUBATION) “inactive; negative”; (Test System: AMES SALMONELLA TYPHIMURIUM, Strain/Indicator: TPT100, Metabolic Activation: NONE, Method: VAPOR PHASE) “active; positive”.
In the case of `O=C1C=CC(=O)C=C1`, the mutagenic call was “inactive; negative” (Test System: AMES SALMONELLA TYPHIMURIUM, Strain/Indicator: TA97, Metabolic Activation: NONE, Method: STANDARD PLATE); “inactive; negative” (Test System: AMES SALMONELLA TYPHIMURIUM, Strain/Indicator: TA97, Metabolic Activation: RAT, LIVER, S-9, AROCLOR 1254, Method: PREINCUBATION); “inactive; negative” (Test System: AMES SALMONELLA TYPHIMURIUM, Strain/Indicator: TA97, Metabolic Activation: RAT, LIVER, S-9, PCB, Method: STANDARD PLATE); “inactive; negative” (Test System: AMES SALMONELLA TYPHIMURIUM, Strain/Indicator: TA97, Metabolic Activation: RAT, LIVER, S-9, PHENOBARBITAL, Method: PREINCUBATION); “inactive; negative” under setting [1]; “inactive; negative” (Test System: AMES SALMONELLA TYPHIMURIUM, Strain/Indicator: TA98, Metabolic Activation: RAT, LIVER, S-9, AROCLOR 1254, Method: PREINCUBATION). The mutagenic call (Test System: AMES SALMONELLA TYPHIMURIUM, Strain/Indicator: TA98, Metabolic Activation: RAT, LIVER, S-9, PCB, Method: STANDARD PLATE) is “inactive; negative”; the mutagenic call (Test System: AMES SALMONELLA TYPHIMURIUM, Strain/Indicator: TA98, Metabolic Activation: RAT, LIVER, S-9, PHENOBARBITAL AND 5,6-BENZOFLAVONE, Method: PREINCUBATION) was “inactive; negative”; the mutagenic call (Test System: AMES SALMONELLA TYPHIMURIUM, Strain/Indicator: TA98, Metabolic Activation: RAT, LIVER, S-9, PHENOBARBITAL, Method: PREINCUBATION) is “active; positive”; the mutagenic call (Test System: AMES SALMONELLA TYPHIMURIUM, Strain/Indicator: TA100, Metabolic Activation: NONE, Method: FLUCTUATION TEST) was “inactive; negative”; the mutagenic call under setting [3] was “inactive; negative”; the mutagenic call under setting [2] was “inactive; negative”. The mutagenic call was “inactive; negative” (Test System: AMES SALMONELLA TYPHIMURIUM, Strain/Indicator: TA100, Metabolic Activation: RAT, LIVER, S-9, AROCLOR 1254, Method: PREINCUBATION); “active; positive” (Test System: AMES SALMONELLA TYPHIMURIUM, Strain/Indicator: TA100, Metabolic Activation: RAT, LIVER, S-9, PCB, Method: FLUCTUATION TEST); “inactive; negative” (Test System: AMES SALMONELLA TYPHIMURIUM, Strain/Indicator: TA100, Metabolic Activation: RAT, LIVER, S-9, PCB, Method: STANDARD PLATE); “active; positive” (Test System: AMES SALMONELLA TYPHIMURIUM, Strain/Indicator: TA100, Metabolic Activation: RAT, LIVER, S-9, PHENOBARBITAL, Method: PREINCUBATION); “inactive; negative” (Test System: AMES SALMONELLA TYPHIMURIUM, Strain/Indicator: TA102, Metabolic Activation: NONE, Method: PREINCUBATION); “inactive; negative” (Test System: AMES SALMONELLA TYPHIMURIUM, Strain/Indicator: TA102, Metabolic Activation: RAT, LIVER, S-9, AROCLOR 1254, Method: PREINCUBATION). Moreover, the mutagenic call is “inactive; negative” (Test System: AMES SALMONELLA TYPHIMURIUM, Strain/Indicator: TA102, Metabolic Activation: RAT, LIVER, S-9, PHENOBARBITAL AND 5,6-BENZOFLAVONE, Method: PREINCUBATION); “inactive; negative” (Test System: AMES SALMONELLA TYPHIMURIUM, Strain/Indicator: TA104, Metabolic Activation: RAT, LIVER, S-9, AROCLOR 1254, Method: PREINCUBATION); “inactive; negative” (Test System: AMES SALMONELLA TYPHIMURIUM, Strain/Indicator: TA104, Metabolic Activation: RAT, LIVER, S-9, PHENOBARBITAL AND 5,6-BENZOFLAVONE, Method: PREINCUBATION); “inactive; negative” under setting [4]; “inactive; negative” (Test System: AMES SALMONELLA TYPHIMURIUM, Strain/Indicator: TA1535, Metabolic Activation: RAT, LIVER, S-9, AROCLOR 1254, Method: PREINCUBATION); “inactive; negative” (Test System: AMES SALMONELLA TYPHIMURIUM, Strain/Indicator: TA2637, Metabolic Activation: NONE, Method: PREINCUBATION). In addition, the mutagenic call reads like this: (Test System: AMES SALMONELLA TYPHIMURIUM, Strain/Indicator: TA2637, Metabolic Activation: RAT, LIVER, S-9, PHENOBARBITAL AND 5,6-BENZOFLAVONE, Method: PREINCUBATION) “inactive; negative”; (Test System: CHINESE HAMSTER V-79, Strain/Indicator: V-79/6-THIOGUANINE, Metabolic Activation: NONE) “active; positive”; (Test System: MOUSE LYMPHOMA, Strain/Indicator: L5178Y (TK+/TK-), Metabolic Activation: NONE, Method: SUSPENSION/PLATE) “active; positive”.
